IC50 data for 25 molecules are collected here from patent US8716312B2, “Inhibitors of diacylglycerol acyltransferase” (Merck Sharp & Dohme Corporation, priority 2008, dated 2014).

The term IC50 denotes the point on the concentration scale where inhibition reaches its midpoint. A high value points to weaker potency.

The experiment concerns the target T1, human DGAT1 enzyme (Homo sapiens, UniProt O75907).
T1 sequence (O75907 1-488): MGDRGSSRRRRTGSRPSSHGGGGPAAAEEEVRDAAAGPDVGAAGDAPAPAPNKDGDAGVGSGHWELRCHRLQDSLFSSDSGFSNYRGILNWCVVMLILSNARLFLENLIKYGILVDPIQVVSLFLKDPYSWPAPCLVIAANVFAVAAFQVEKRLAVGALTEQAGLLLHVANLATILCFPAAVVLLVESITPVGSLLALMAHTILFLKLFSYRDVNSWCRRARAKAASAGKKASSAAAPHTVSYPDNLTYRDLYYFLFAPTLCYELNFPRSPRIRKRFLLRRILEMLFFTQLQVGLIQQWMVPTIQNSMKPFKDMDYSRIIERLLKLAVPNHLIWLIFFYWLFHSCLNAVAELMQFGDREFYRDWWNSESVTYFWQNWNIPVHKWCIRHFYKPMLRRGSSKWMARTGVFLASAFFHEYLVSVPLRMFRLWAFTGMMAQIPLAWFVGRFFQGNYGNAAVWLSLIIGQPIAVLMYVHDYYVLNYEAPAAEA
Briefly: in vitro DGAT1 inhibition assay (microsomes, [14C]-palmitoyl-CoA, SPA beads).
Description: The in vitro assay to identify DGAT1 inhibitors uses human DGAT1 enzyme expressed in Sf9 insect cells prepared as microsomes. The reaction is initiated by the addition of the combined substrates 1,2-dioleoyl-sn-glycerol and [^14C]-palmitoyl-Co A and incubated with test compounds and microsomal membranes for 2 hours at room temperature. The assay is stopped by adding 0.5 mg wheat germ agglutinin beads in assay buffer with 1% Brij-35 and 1% 3-cholamidopropyldimethyl-ammonio-1-propane sulfonate. Plates are sealed with TopSeal and incubated for 18 hours to allow the radioactive triglyceride product to come into proximity with the bead. Plates are read on a TopCount instrument.
Percent inhibition was calculated as the percent of (test compound inhibition minus non-specific binding) relative to (total binding minus non-specific binding). IC50 values were determined by curve fitting the data to a Sigmoidal dose-response in GraphPad Prism utilizing the following equation: Y=A+(B−A)/(1+10^((Log IC50−X))), where A and B are the bottom and top of the curve (highest and lowest inhibition), respectively, and X is the logarithm of concentration.
Take `CC1CCCN(c2nc(C(F)(F)F)c(C(=O)Nc3ccc(N4CCN(c5ccccc5F)CC4)nc3)o2)C1` (stereo not shown) [Compound 164, N-(6-(4-(2-fluorophenyl)piperazin-1-yl)pyridin-3-yl)-2-(3-methylpiperidin-1-yl)-4-(trifluoromethyl)oxazole-5-carboxamide]: the IC50 lay within 11 to 100 nM.
Take `CC1CCCN(c2nc(C(F)(F)F)c(C(=O)Nc3ccc(N4CCc5c(cccc5C(=O)O)C4)nc3)o2)C1` (stereo not shown) [Compound 168, 2-(5-(2-(3-methylpiperidin-1-yl)-4-(trifluoromethyl)oxazole-5-carboxamido)pyridin-2-yl)-1,2,3,4-tetrahydroisoquinoline-5-carboxylic acid]: the IC50 was in the range of 101 to 500 nM.
The result for `CC1CCCN(c2nc(C(F)(F)F)c(C(=O)Nc3ccc(N4CCN(c5ccccn5)CC4)nc3)o2)C1` (stereo not shown) [Compound 169, 2-(3-methylpiperidin-1-yl)-N-(6-(4-(pyridin-2-yl)piperazin-1-yl)pyridin-3-yl)-4-(trifluoromethyl)oxazole-5-carboxamide] reads 11 to 100 nM; that for `CC1CCCN(c2nc(C(F)(F)F)c(C(=O)Nc3ccc(N4CCN(c5ccccc5O)CC4)nc3)o2)C1` (stereo not shown) [Compound 171, N-(6-(4-(2-hydroxyphenyl)piperazin-1-yl)pyridin-3-yl)-2-(3-methylpiperidin-1-yl)-4-(trifluoromethyl)oxazole-5-carboxamide], 11 to 100 nM.
The result for `CC1CCCN(c2nc(C(F)(F)F)c(C(=O)Nc3ccc(N4CCc5c(cccc5Nc5ccccc5F)C4)nc3)o2)C1` (stereo not shown) [Compound 174, N-(6-(5-(2-fluorophenylamino)-3,4-dihydroisoquinolin-2(1H)-yl)pyridin-3-yl)-2-(3-methylpiperidin-1-yl)-4-(trifluoromethyl)oxazole-5-carboxamide] reads 101 to 500 nM; that for `O=C(Nc1ccc(N2CCN(C(=S)Nc3ccccc3F)CC2)nc1)c1oc(N2CCC(c3ccccc3)CC2)nc1C(F)(F)F` [Compound 181, N-(6-(4-(2-fluorophenylcarbamothioyl)piperazin-1-yl)pyridin-3-yl)-2-(4-phenylpiperidin-1-yl)-4-(trifluoromethyl)oxazole-5-carboxamide], 11 to 100 nM; that for `N#C/N=C(/N1CCCC1)N1CCN(c2ccc(NC(=O)c3oc(N4CCC(c5ccccc5)CC4)nc3C(F)(F)F)cn2)CC1` [Compound 182, (Z)—N-(6-(4-((cyanoimino)(pyrrolidin-1-yl)methyl)piperazin-1-yl)pyridin-3-yl)-2-(4-phenylpiperidin-1-yl)-4-(trifluoromethyl)oxazole-5-carboxamide], 101 to 500 nM.
Molecule `CC1CCCN(c2nc(C(F)(F)F)c(C(=O)Nc3ccc(N4CCCN(C(=O)[C@H]5CC[C@@H](C(=O)O)CC5)CC4)nc3)o2)C1` (stereo partly shown) [Compound 185, (1s,4s)-4-(4-(5-(2-(3-Methylpiperidin-1-yl)-4-(trifluoromethyl)oxazole-5-carboxamido)pyridin-2-yl)-1,4-diazepane-1-carbonyl)cyclohexanecarboxylic acid] showed a concentration for half-maximal inhibition (IC50) of 101 to 500 nM.
The result for `CC1CCCN(c2nc(C(F)(F)F)c(C(=O)Nc3ccc(N4CCCN(C(=O)c5cccc(C(=O)O)c5)CC4)nc3)o2)C1` (stereo not shown) [Compound 190, 3-(4-(5-(2-(3-methylpiperidin-1-yl)-4-(trifluoromethyl)oxazole-5-carboxamido)pyridin-2-yl)-1,4-diazepane-1-carbonyl)benzoic acid] reads 101 to 500 nM.
Consider `CC1CCCN(c2nc(C(F)(F)F)c(C(=O)Nc3ccc(N4CCCN(C(=O)C(O)C(F)(F)F)CC4)nc3)o2)C1` (stereo not shown) [Compound 191, 2-(3-methylpiperidin-1-yl)-N-(6-(4-(3,3,3-trifluoro-2-hydroxypropanoyl)-1,4-diazepan-1-yl)pyridin-3-yl)-4-(trifluoromethyl)oxazole-5-carboxamide], for which the IC50 was 101 to 500 nM.
Turning to `CC1CCCN(c2nc(C(F)(F)F)c(C(=O)Nc3ccc(N4CCN(C(=O)C(O)C(F)(F)F)CC4)nc3)o2)C1` (stereo not shown) [Compound 194, 2-(3-methylpiperidin-1-yl)-N-(6-(4-(3,3,3-trifluoro-2-hydroxypropanoyl)piperazin-1-yl)pyridin-3-yl)-4-(trifluoromethyl)oxazole-5-carboxamide], the IC50 lay in the range of 11 to 100 nM.
For `CC1CCCN(c2nc(C(F)(F)F)c(C(=O)Nc3ccc(N4CCN(C(=O)[C@H](O)C5CCCCC5)CC4)nc3)o2)C1` (stereo partly drawn) [Compound 196, N-(6-(4-((R)-2-cyclohexyl-2-hydroxyacetyl)piperazin-1-yl)pyridin-3-yl)-2-(3-methylpiperidin-1-yl)-4-(trifluoromethyl)oxazole-5-carboxamide] the value was 11 to 100 nM; for `CC1CCCN(c2nc(C(F)(F)F)c(C(=O)Nc3ccc(N4CCN(C(=O)[C@H](O)c5ccccc5)CC4)nc3)o2)C1` (stereo partly drawn) [Compound 198, N-(6-(4-((R)-2-hydroxy-2-phenylacetyl)piperazin-1-yl)pyridin-3-yl)-2-(3-methylpiperidin-1-yl)-4-(trifluoromethyl)oxazole-5-carboxamide], 11 to 100 nM.
For `O=C(Nc1ccc(N2CCN(C(=O)[C@H](O)c3ccccc3)CC2)nc1)c1oc(N2CCC(c3ccccc3)CC2)nc1C(F)(F)F` [Compound 200, (R)—N-(6-(4-(2-hydroxy-2-phenylacetyl)piperazin-1-yl)pyridin-3-yl)-2-(4-phenylpiperidin-1-yl)-4-(trifluoromethyl)oxazole-5-carboxamide] the value was 11 to 100 nM; for `O=C(Nc1ccc(N2CCCN(C(=O)C(O)c3cc(F)cc(F)c3)CC2)nc1)c1oc(N2CCC(c3ccccc3)CC2)nc1C(F)(F)F` (stereo not shown) [Compound 202, N-(6-(4-(2-(3,5-difluorophenyl)-2-hydroxyacetyl)-1,4-diazepan-1-yl)pyridin-3-yl)-2-(4-phenylpiperidin-1-yl)-4-(trifluoromethyl)oxazole-5-carboxamide], 11 to 100 nM.
The result for `O=C(Nc1ccc(N2CCN(C(=O)[C@H](O)c3ccccc3)CC2)nc1)c1oc(N2CCC(c3cccc(Cl)c3)C2)nc1C(F)(F)F` (stereo partly drawn) [Compound 207, 2-(3-(3-chlorophenyl)pyrrolidin-1-yl)-N-(6-(4-((R)-2-hydroxy-2-phenylacetyl)piperazin-1-yl)pyridin-3-yl)-4-(trifluoromethyl)oxazole-5-carboxamide] reads 11 to 100 nM.
Turning to `O=C(Nc1ccc(N2CCN(C(=O)C(O)C(F)(F)F)CC2)nc1)c1oc(N2CCC(c3cccc(Cl)c3)C2)nc1C(F)(F)F` (stereo not shown) [Compound 212, 2-(3-(3-chlorophenyl)pyrrolidin-1-yl)-N-(6-(4-(3,3,3-trifluoro-2-hydroxypropanoyl)piperazin-1-yl)pyridin-3-yl)-4-(trifluoromethyl)oxazole-5-carboxamide], the IC50 fell in the range of 11 to 100 nM.
The result for `O=C(Nc1ccc(N2CCN(C(=O)[C@H](O)C3CCCCC3)CC2)nc1)c1oc(N2CCC(c3cccc(Cl)c3)C2)nc1C(F)(F)F` (stereo partly drawn) [Compound 213, N-(6-(4-((R)-2-cyclohexyl-2-hydroxyacetyl)piperazin-1-yl)pyridin-3-yl)-2-(3-(3-chlorophenyl)pyrrolidin-1-yl)-4-(trifluoromethyl)oxazole-5-carboxamide] reads 11 to 100 nM; that for `Cc1cccc(Cl)c1NC(=O)N1CCCN(c2ccc(NC(=O)c3oc(N4CCCC(C)C4)nc3C(F)(F)F)cn2)CC1` (stereo not shown) [Compound 215, N-(2-chloro-6-methylphenyl)hexahydro-4-[5-[[[2-(3-methyl-1-piperidinyl)-4-(trifluoromethyl)-5-oxazolyl]carbonyl]amino]-2-pyridinyl]-1H-1,4-diazepine-1-carboxamide], 11 to 100 nM; that for `CCOC(=O)c1nnc2n1CCN(c1ccc(NC(=O)c3oc(N4CCC(c5ccccc5)CC4)nc3C(F)(F)F)cn1)C2` [Compound 216, Ethyl 5,6,7,8-tetrahydro-7-[5-[[[2-(4-phenyl-1-piperidinyl)-4-(trifluoromethyl)-5-oxazolyl]carbonyl]amino]-2-pyridinyl]-1,2,4-triazolo[4,3-a]pyrazine-3-carboxylate], 101 to 500 nM.
The result for `CC1CCCN(c2nc(C(F)(F)F)c(C(=O)Nc3ccc(N4CC(NC(=O)Nc5ccccc5F)C4)nc3)o2)C1` (stereo not shown) [Compound 221, N-(6-(3-(3-(2-fluorophenyl)ureido)azetidin-1-yl)pyridin-3-yl)-2-(3-methylpiperidin-1-yl)-4-(trifluoromethyl)oxazole-5-carboxamide] reads 101 to 500 nM; that for `CC1CCCN(c2nc(C(F)(F)F)c(C(=O)Nc3ccc(NC4CN(C(=O)Nc5ccccc5F)C4)nc3)o2)C1` (stereo not shown) [Compound 223, N-(6-(1-(2-fluorophenylcarbamoyl)azetidin-3-ylamino)pyridin-3-yl)-2-(3-methylpiperidin-1-yl)-4-(trifluoromethyl)oxazole-5-carboxamide], 101 to 500 nM.
The result for `O=C(Nc1ccc(N2CCN(C(=O)Cc3ccccc3F)CC2)nc1)c1oc(N2CCC(c3ccccc3)CC2)nc1C(F)(F)F` [Compound 225] reads 11 to 100 nM; that for `O=C(Nc1ccc(N2CCN(C(=O)Cc3ccccc3O)CC2)nc1)c1oc(N2CCC(c3ccccc3)CC2)nc1C(F)(F)F` [Compound 226, N-(6-(4-(2-(2-hydroxyphenyl)acetyl)piperazin-1-yl)pyridin-3-yl)-2-(4-phenylpiperidin-1-yl)-4-(trifluoromethyl)oxazole-5-carboxamide], 101 to 500 nM.
With `O=C(Nc1ccc(N2CCN(C(=O)Cc3c(F)cccc3F)CC2)nc1)c1oc(N2CCC(c3ccccc3)CC2)nc1C(F)(F)F` [Compound 229, N-(6-(4-(2-(2,6-difluorophenyl)acetyl)piperazin-1-yl)pyridin-3-yl)-2-(4-phenylpiperidin-1-yl)-4-(trifluoromethyl)oxazole-5-carboxamide], the IC50 was in the range of 11 to 100 nM.
